In ChEMBL document CHEMBL1140822, “Prodrug thiamine analogs as inhibitors of the enzyme transketolase” (Bioorg Med Chem Lett, 2008):
Calls of active or inactive are those of the source. The calls are words filed in the database; no cut-off is given here.

Tests used:
[1] = Clearance in rat at 3 mg/kg, iv; assay type: ADME, organism-based; design: dose 3 mg/kg, route intravenous; details: in vivo
[2] = Volume of distribution at steady state in rat at 3 mg/kg, iv; assay type: ADME, organism-based; design: dose 3 mg/kg, route intravenous; details: in vivo, read-out: Vdss
[3] = AUC in rat at 3 mg/kg, iv; assay type: ADME, organism-based; design: dose 3 mg/kg, route intravenous; details: plasma
[4] = Mean residence time in rat at 3 mg/kg, iv; assay type: ADME, organism-based; design: dose 3 mg/kg, route intravenous; details: in vivo
Transketolase = target: T1, Transketolase (Homo sapiens, UniProt P29401); test: Inhibition of transketolase in human HCT116 cells; assay type: cell-based, HCT-116
T1 sequence (P29401 whole entry): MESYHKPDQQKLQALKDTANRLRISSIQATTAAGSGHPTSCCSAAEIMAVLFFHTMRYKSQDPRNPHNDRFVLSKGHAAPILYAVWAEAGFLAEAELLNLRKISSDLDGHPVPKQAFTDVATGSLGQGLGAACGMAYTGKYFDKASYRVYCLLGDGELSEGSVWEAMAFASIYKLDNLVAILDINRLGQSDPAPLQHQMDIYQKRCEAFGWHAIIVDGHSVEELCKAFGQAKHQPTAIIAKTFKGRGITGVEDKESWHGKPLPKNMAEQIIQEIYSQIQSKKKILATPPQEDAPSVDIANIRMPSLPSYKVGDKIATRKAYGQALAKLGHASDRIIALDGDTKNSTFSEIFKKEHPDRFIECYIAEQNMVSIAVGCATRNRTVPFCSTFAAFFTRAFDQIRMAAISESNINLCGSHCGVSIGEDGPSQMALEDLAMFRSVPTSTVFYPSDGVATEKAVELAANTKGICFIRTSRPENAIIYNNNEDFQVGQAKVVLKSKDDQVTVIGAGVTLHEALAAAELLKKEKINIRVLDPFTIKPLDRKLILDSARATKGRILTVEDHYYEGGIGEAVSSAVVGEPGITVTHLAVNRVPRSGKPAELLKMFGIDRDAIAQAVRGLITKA

Mus musculus = test: Inhibition of transketolase in BALB/c mouse blood at 100 mg/kg, ip after 72 hrs; assay type: functional, organism-based; design: dose 100 mg/kg
[5] = Cmax in rat at 3 mg/kg, iv; assay type: ADME, organism-based; design: dose 3 mg/kg, route intravenous; details: in vivo

| Compound | EC50 (Transketolase) | also measured |
| --- | --- | --- |
| C/C(=C(\CCO)SS/C(CCO)=C(/C)N(C=O)Cc1ccc(C)nc1N)N(C=O)Cc1ccc(C)nc1N | 12 nM | clearance [1]: 32.5 mL/min/kg; Vd [2]: 19.3 L/kg; AUC [3]: 1590 ng·h/mL; MRT [4]: 12.7 h; Activity (Mus musculus): Active; Cmax [5]: 1120 ng/mL |
| C/C(=C(\CCO)SS/C(CCO)=C(/C)N(C=O)Cc1cccnc1N)N(C=O)Cc1cccnc1N | 479 nM | – |
| C/C(=C(\CCO)SCOC(=O)C(C)(C)C)N(C=O)Cc1ccc(C)nc1N | 116 nM | clearance [1]: 0.63 mL/min/kg; Vd [2]: 1.83 L/kg; AUC [3]: 79200 ng·h/mL; MRT [4]: 48.3 h; Cmax [5]: 3020 ng/mL |
| Cc1c(CCO)sc[n+]1Cc1cccnc1N | 110 nM | – |
| Cc1ccc(C[n+]2csc(CCO)c2C)c(N)n1.[Cl-] | 18 nM | clearance [1]: 41.3 mL/min/kg; Vd [2]: 1.98 L/kg; AUC [3]: 1250 ng·h/mL; MRT [4]: 0.72 h; Cmax [5]: 6610 ng/mL |
| C/C(=C(\CCO)SSCCO)N(C=O)Cc1ccc(C)nc1N | 13 nM | – |
| C/C(=C(\CCO)SSCCC(=O)O)N(C=O)Cc1ccc(C)nc1N | 52 nM | – |
| CCCCS/C(CCO)=C(/C)N(C=O)Cc1ccc(C)nc1N | 6000 nM | – |
| C/C(=C(\CCO)SS/C(CCO)=C(/C)N(C=O)Cc1ccc(Cl)nc1N)N(C=O)Cc1ccc(Cl)nc1N | 8 nM | – |
| C/C(=C1\CCOC(=O)S1)N(C=O)Cc1ccc(C)nc1N | 15 nM | – |
| Cc1ccc(CN(C=O)/C=C(/CCO)SS/C(=C\N(C=O)Cc2ccc(C)nc2N)CCO)c(N)n1 | 102000 nM | – |
| Cc1c(CCO)sc[n+]1Cc1ccc(Cl)nc1N | 9 nM | – |
| CC(=O)OCC/C(SC(C)=O)=C(\C)N(C=O)Cc1ccc(C)nc1N | 8 nM | – |
| Cc1ccc(C[n+]2c(C)sc(CCO)c2C)c(N)n1 | 28 nM | – |
| CC(=O)N(Cc1ccc(C)nc1N)/C(C)=C(/CCO)SS/C(CCO)=C(/C)N(Cc1ccc(C)nc1N)C(C)=O | 32 nM | – |
| Cc1ccc(C[n+]2csc(CCO)c2)c(N)n1 | 9540 nM | – |
| C/C(=C(\CCOC(=O)c1ccccc1)SC(=O)c1ccccc1)N(C=O)Cc1ccc(C)nc1N | 28 nM | – |
